Where two headings read alike, the source gives them in different places.
Experiments:
human TLR7 = human TLR7 (Homo sapiens (Human), UniProt Q9NYK1); assay: TLR7 inhibition reporter assay (HEK-Blue SEAP); assay type: cell-based; conditions: HEK-Blue cells overexpressing human TLR7, gardiquimod 7.5 μM stimulation
human TLR8 = human TLR8 (Homo sapiens (Human), UniProt Q9NR97); assay: TLR8 inhibition reporter assay (HEK-Blue SEAP);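 also: SEAP driven by IFN-β minimal promoter with five NF-κB and AP-1 sites, compounds tested 0.05 nM to 50 µM, 22 h incubation, inhibition relative to agonist plus DMSO wells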
Method: HEK-Blue™-cells (Invivogen) overexpressing human TLR7, TLR8 or TLR9 receptors were used for screening inhibitors of these receptors using an inducible SEAP (secreted embryonic alkaline phosphatase) reporter gene under the control of the IFN-β minimal promoter fused to five NF-κB and AP-1-binding sites. Briefly, cells are seeded into Greiner 384 well plates (15000 cells per well for TLR7, 20,000 for TLR8 and 25,000 for TLR9) and then treated with test compounds in DMSO to yield a final dose response concentration range of 0.05 nM-50 μM. After a 30 minute compound pre-treatment at room temperature, the cells are then stimulated with a TLR7 ligand (gardiquimod at a final concentration of 7.5 μM), TLR8 ligand (R848 at a final concentration of 15.9 μM) or TLR9 ligand (ODN2006 at a final concentration of 5 nM) to activate NF-κB and AP-1 which induce the production of SEAP. After a 22 hour incubation at 37° C., 500 CO2, SEAP levels are determined with the addition of HEK-Blue™ Detection reagent (Invivogen), a cell culture medium that allows for detection of SEAP, according to manufacturer's specifications.

human TLR9 = human TLR9 (Homo sapiens (Human), UniProt Q9NR96); assay: TLR9 inhibition reporter assay (HEK-Blue SEAP);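 also: SEAP driven by IFN-β minimal promoter carrying five NF-κB and AP-1 sites, 22 h at 37 °C, compounds 0.05 nM–50 µM, inhibition scaled between agonist-plus-DMSO and reference-inhibitor wells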
[1] = read-out: TLR8 IC50; HEK-Blue cells overexpressing human TLR8, R848 15.9 μM stimulation, SEAP reporter
[2] = read-out: TLR9 IC50; HEK-Blue cells overexpressing human TLR9, ODN2006 5 nM stimulation, SEAP reporter
[3] = read-out: TLR8 IC50; HEK-Blue cells overexpressing human TLR8; R848 15.9 μM stimulation; SEAP reporter
[4] = read-out: TLR9 IC50; HEK-Blue cells overexpressing human TLR9; ODN2006 5 nM stimulation; SEAP reporter

Sequence of human TLR7 (Q9NYK1 27-1049): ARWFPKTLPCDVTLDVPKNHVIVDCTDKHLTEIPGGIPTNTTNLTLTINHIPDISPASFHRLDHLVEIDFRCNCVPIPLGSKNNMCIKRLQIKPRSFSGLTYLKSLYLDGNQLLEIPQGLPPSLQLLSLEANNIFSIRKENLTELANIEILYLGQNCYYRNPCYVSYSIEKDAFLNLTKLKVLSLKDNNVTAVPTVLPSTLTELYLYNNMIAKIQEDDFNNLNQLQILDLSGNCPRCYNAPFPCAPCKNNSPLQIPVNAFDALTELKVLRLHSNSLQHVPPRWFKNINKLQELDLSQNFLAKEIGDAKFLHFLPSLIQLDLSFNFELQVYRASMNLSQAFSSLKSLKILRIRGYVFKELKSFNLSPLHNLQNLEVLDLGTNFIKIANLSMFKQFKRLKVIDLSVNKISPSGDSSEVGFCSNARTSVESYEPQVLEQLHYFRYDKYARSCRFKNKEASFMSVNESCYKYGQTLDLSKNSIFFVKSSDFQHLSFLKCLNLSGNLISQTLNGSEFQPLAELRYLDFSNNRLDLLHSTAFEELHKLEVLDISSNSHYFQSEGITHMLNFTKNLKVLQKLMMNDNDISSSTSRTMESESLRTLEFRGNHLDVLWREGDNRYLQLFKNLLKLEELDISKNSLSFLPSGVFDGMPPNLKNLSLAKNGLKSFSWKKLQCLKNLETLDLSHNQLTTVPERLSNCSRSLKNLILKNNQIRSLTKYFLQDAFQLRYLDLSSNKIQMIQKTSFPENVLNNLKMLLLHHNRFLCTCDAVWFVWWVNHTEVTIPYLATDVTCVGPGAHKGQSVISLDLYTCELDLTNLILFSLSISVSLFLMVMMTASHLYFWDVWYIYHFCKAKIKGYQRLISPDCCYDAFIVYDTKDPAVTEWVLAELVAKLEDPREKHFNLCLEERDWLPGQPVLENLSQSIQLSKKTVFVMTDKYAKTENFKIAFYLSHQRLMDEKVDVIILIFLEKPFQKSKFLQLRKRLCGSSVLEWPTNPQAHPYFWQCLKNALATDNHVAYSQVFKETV
Sequence of human TLR8 (Q9NR97 27-1041): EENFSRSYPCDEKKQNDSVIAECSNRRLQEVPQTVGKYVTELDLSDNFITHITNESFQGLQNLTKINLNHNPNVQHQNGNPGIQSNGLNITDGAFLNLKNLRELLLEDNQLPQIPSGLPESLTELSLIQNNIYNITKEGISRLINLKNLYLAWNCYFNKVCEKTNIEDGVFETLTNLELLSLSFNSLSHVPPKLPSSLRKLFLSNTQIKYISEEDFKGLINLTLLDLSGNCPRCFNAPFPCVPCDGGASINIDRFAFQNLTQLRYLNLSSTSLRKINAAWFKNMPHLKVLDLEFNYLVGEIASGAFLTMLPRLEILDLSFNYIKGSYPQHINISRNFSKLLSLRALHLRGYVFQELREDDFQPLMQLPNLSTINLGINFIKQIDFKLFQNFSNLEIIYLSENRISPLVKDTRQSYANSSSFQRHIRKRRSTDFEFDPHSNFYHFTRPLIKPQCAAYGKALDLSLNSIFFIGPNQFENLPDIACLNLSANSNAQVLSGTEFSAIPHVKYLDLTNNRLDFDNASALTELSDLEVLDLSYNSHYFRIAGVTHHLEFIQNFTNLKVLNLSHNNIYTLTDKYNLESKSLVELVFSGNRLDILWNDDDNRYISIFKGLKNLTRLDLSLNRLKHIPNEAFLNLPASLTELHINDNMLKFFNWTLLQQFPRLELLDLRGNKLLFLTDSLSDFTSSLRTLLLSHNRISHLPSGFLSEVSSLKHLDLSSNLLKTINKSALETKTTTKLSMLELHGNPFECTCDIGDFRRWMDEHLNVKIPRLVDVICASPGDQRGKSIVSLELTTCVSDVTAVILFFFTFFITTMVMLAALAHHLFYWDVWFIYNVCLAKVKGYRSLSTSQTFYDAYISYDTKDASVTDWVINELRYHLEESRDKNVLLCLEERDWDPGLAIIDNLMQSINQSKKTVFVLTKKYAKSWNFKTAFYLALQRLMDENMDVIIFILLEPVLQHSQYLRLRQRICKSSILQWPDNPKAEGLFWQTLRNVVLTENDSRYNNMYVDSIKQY
Sequence of human TLR9 (Q9NR96 26-1032): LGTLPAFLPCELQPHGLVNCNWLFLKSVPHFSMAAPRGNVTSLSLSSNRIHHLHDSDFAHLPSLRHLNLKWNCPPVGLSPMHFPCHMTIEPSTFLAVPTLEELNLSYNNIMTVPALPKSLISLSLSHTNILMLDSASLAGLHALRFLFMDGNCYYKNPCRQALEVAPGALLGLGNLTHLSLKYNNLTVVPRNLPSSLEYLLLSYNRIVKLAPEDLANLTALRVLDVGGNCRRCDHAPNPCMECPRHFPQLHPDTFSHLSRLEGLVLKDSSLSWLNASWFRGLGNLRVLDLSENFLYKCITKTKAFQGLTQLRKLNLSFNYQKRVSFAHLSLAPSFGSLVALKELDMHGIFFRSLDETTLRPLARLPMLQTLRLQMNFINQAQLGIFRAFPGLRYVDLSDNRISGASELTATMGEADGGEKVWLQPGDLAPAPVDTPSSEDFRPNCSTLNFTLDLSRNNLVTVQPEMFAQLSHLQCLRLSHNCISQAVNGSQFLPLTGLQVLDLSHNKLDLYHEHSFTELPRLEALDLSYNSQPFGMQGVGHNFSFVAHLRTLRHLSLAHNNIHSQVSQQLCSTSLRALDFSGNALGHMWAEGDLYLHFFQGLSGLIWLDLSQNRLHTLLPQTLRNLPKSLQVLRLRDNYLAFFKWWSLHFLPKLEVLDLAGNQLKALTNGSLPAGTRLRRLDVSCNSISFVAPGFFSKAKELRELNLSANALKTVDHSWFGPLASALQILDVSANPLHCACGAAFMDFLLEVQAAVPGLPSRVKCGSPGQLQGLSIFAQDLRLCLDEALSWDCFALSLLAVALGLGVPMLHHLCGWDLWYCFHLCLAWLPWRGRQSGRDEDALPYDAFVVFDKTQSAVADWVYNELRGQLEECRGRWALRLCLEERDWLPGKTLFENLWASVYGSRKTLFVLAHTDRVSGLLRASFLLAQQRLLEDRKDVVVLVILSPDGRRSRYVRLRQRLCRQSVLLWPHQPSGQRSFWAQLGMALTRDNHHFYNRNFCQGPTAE

Compound	IC50 (human TLR7)	IC50 (human TLR8; [1])	IC50 (human TLR9; [2])	IC50 (human TLR8; [3])	IC50 (human TLR9; [4])	IC50 (human TLR8)	IC50 (human TLR9)
Cc1c(-c2[nH]c3cnc(N4CCN(C(C)C)CC4)c(F)c3c2C(C)C)cn2ncnc2c1C [Example 412]	6.7 nM	0.29 nM	5740 nM				
COc1cc(-c2[nH]c3cnc(N4CCN(CC(C)C)C[C@H]4C)c(F)c3c2C(C)C)cn2ncnc12 [Example 453]	16 nM			34 nM	> 50000 nM		
COCCN1CCN(c2ncc3[nH]c(-c4cc(OC)c5ncnn5c4)c(C(C)C)c3c2F)CC1 [Example 361]	3.8 nM	0.76 nM	4850 nM				
CCN(CCC#N)C1CCN(c2ncc3[nH]c(-c4cc(C)c5ncnn5c4)c(C(C)C)c3c2C)CC1 [Example 286]	2.2 nM	2.2 nM	2860 nM				
Cc1c(-c2[nH]c3cnc(C4CCC(N5CCC5)CC4)c(F)c3c2C(C)C)cn2ncnc2c1C (centres unmarked) [Example 233]	2.7 nM			3.6 nM	1160 nM		
COc1cc(-c2[nH]c3cnc(N4CCN(C)C[C@H]4C)c(F)c3c2C(C)C)cn2ncnc12 [Example 436]	1.8 nM	5.1 nM	10300 nM				
CCCN1CCN(c2ncc3[nH]c(-c4cc(OC)c5ncnn5c4)c(C(C)C)c3c2F)[C@H](C)C1 [Example 437]	2.6 nM					6.4 nM	7670 nM
COc1cc(-c2[nH]c3cnc(C4CCC(NC5COC5)C4)cc3c2C(C)C)cn2ncnc12 (centres unmarked) [Example 273]	8.6 nM	16 nM	376 nM				
COc1cc(-c2[nH]c3cnc(N4CCC(NC(C)C)CC4)c(C)c3c2C(C)C)cn2ncnc12 [Example 202]	0.35 nM	1.2 nM	2460 nM				
COc1cc(-c2[nH]c3cnc(C4CCC(N(C)CC(N)=O)CC4)c(F)c3c2C(C)C)cn2ncnc12 (centres unmarked) [Example 78]	4.3 nM	11 nM	8620 nM				
Cc1c(-c2[nH]c3cnc(C4CCC(NCC(F)F)CC4)cc3c2C(C)C)cn2ncnc2c1C (centres unmarked) [Example 350]	1.4 nM	4.7 nM	1080 nM				
COc1cc(-c2[nH]c3cnc(C4CCC(N(C)C)CC4)cc3c2C(C)C)cn2ncnc12 (centres unmarked) [Example 340]	1270 nM	708 nM	11500 nM				
COc1cc(-c2[nH]c3cnc(C4CCNCC4)c(F)c3c2C(C)C)cn2ncnc12 [Example 3, 6-(4-fluoro-3-isopropyl-5-(piperidin-4-yl)-1H-pyrrolo[2,3-c]pyridin-2-yl)-8-methoxy-[1,2,4]triazolo[1,5-a]pyridine]	3.2 nM	11 nM	1580 nM				
Cc1c(-c2[nH]c3cnc(N4CCN(C5CCOCC5)CC4)c(C)c3c2C(C)C)cn2ncnc2c1C [Example 418]	19 nM	2.2 nM	6010 nM				
Cc1c(-c2[nH]c3cnc(C4CCNCC4)c(F)c3c2C(C)C)cn2ncnc2c1C [Example 13]	6.5 nM	6.8 nM	2780 nM				
COc1cc(-c2[nH]c3cnc(N4CCN(C(=O)CN(C)C)CC4)c(C)c3c2C(C)C)cn2ncnc12 [Example 154]	4 nM	4.4 nM	1220 nM				
Cc1c(-c2[nH]c3cnc(N4CCN(CC(F)(F)F)C[C@H]4C)c(F)c3c2C(C)C)cn2ncnc2c1C [Example 468]	43 nM			50 nM	> 50000 nM		
COc1cc(-c2[nH]c3cnc(N4CCC(N(C)CC(N)=O)CC4)c(F)c3c2C(C)C)cn2ncnc12 [Example 222]	3.2 nM			2.7 nM	5770 nM		
Cc1cc(-c2[nH]c3cnc(N4CCC(N(C)C5COC5)CC4)c(F)c3c2C(C)C)cn2ncnc12 [Example 130]	1.3 nM	0.76 nM	5250 nM				
COc1cc(-c2[nH]c3cnc(C4CCC(NCC5(C)COC5)CC4)c(C)c3c2C(C)C)cn2ncnc12 (centres unmarked) [Example 269]	4.4 nM	6.4 nM	205 nM				
CCN(C)C1CCC(c2ncc3[nH]c(-c4cc(OC)c5ncnn5c4)c(C(C)C)c3c2F)CC1 (centres unmarked) [Example 77]	2.7 nM	4.5 nM	403 nM				
Cc1cc(-c2[nH]c3cnc(C4CCN(CC(C)(C)O)CC4)c(F)c3c2C(C)C)cn2ncnc12 [Example 128]	1.9 nM	1.4 nM	2480 nM				
Cc1c(N2CCC(N3CCS(=O)(=O)CC3)CC2)ncc2[nH]c(-c3cc(C)c4ncnn4c3)c(C(C)C)c12 [Example 281]	16 nM	43 nM	36400 nM				
Cc1cc(-c2[nH]c3cnc(N4CCC(N(C)CC(=O)N(C)C)CC4)c(F)c3c2C(C)C)cn2ncnc12 [Example 45]	2.2 nM	1.9 nM	2770 nM				
COc1cc(-c2[nH]c3cnc(N4CCC(NC(C)C)CC4)c(F)c3c2C(C)C)cn2ncnc12 [Example 157]	0.8 nM	0.51 nM	4180 nM				

Compound	IC50 (human TLR7)	IC50 (human TLR8; [1])	IC50 (human TLR9; [2])	IC50 (human TLR8; [3])	IC50 (human TLR9; [4])	IC50 (human TLR8)	IC50 (human TLR9)
Cc1c(-c2[nH]c3cnc(N4CC5(CN(C)C5)C4)c(F)c3c2C(C)C)cn2ncnc2c1C [Example 407]	47 nM	828 nM	35400 nM				
Cc1c(-c2[nH]c3cnc(C4CCC(NCC(C)(C)C)CC4)c(F)c3c2C(C)C)cn2ncnc2c1C (centres unmarked) [Example 234]	13 nM	2.6 nM	733 nM	2.6 nM	733 nM		
Cc1c(-c2[nH]c3cnc(C4CCC(NC5CCOCC5)CC4)c(C)c3c2C(C)C)cn2ncnc2c1C (centres unmarked) [Example 120]	2.3 nM	2 nM	71 nM				
CNC(=O)CN1CCC(c2ncc3[nH]c(-c4cc(C)c5ncnn5c4)c(C(C)C)c3c2F)CC1 [Example 181]	1.5 nM	5 nM	6550 nM				
Cc1c(-c2[nH]c3cnc(C4CCC(NC56CC(C5)C6)CC4)c(F)c3c2C(C)C)cn2ncnc2c1C (centres unmarked) [Example 239]	2.6 nM	2.6 nM	15900 nM				
COc1cc(-c2[nH]c3cnc(C4CCC(NCC(C)(C)C)C4)cc3c2C(C)C)cn2ncnc12 (centres unmarked) [Example 144]	14 nM	14 nM	1250 nM				
COc1cc(-c2[nH]c3cnc(C4CCC(NCC5(C)COC5)CC4)c(F)c3c2C(C)C)cn2ncnc12 (centres unmarked) [Example 193]	0.84 nM	0.4 nM	1250 nM				
Cc1cc(-c2[nH]c3cnc(C4CCNCC4)c(F)c3c2C(C)C)cn2ncnc12 [Example 184]	1.9 nM	7.9 nM	1870 nM				
Cc1cc(-c2[nH]c3cnc(C4CCN(CC5(C)COC5)CC4)c(F)c3c2C(C)C)cn2ncnc12 [Example 250]	3.2 nM	3.4 nM	4770 nM				
Cc1cc(-c2[nH]c3cnc(C4CCC(NC5(C)COC5)CC4)c(F)c3c2C(C)C)cn2ncnc12 (centres unmarked) [Example 231]	5.9 nM			6.6 nM	4170 nM		
COc1cc(-c2[nH]c3cnc(C4CCC(N5CC6(COC6)C5)CC4)cc3c2C(C)C)cn2ncnc12 (centres unmarked) [Example 309]	7.3 nM	49 nM	133 nM				
COc1cc(-c2[nH]c3cnc(N4CCN(CCS(C)(=O)=O)CC4)cc3c2C(C)C)cn2ncnc12 [Example 290]	20 nM	7.1 nM	> 50000 nM				
COc1cc(-c2[nH]c3cnc(N4CCN(CC(F)(F)F)CC4)c(F)c3c2C(C)C)cn2ncnc12 [Example 366]	3.8 nM	39 nM	16200 nM				
COc1cc(-c2[nH]c3cnc(C4CCC(NC5COC5)CC4)c(C)c3c2C(C)C)cn2ncnc12 (centres unmarked) [Example 242]	11 nM	14 nM	401 nM				
CCCN1CCN(c2ncc3[nH]c(-c4cn5ncnc5c(C)c4C)c(C(C)C)c3c2F)[C@H](C)C1 [Example 455]	0.59 nM			0.17 nM	14600 nM		
Cc1cc(-c2[nH]c3cnc(N4CCC(N(C)CC(F)F)CC4)c(F)c3c2C(C)C)cn2ncnc12 [Example 257]	5.3 nM	6.4 nM	36000 nM				
COc1cc(-c2[nH]c3cnc(C4CCN(CC(N)=O)CC4)c(F)c3c2C(C)C)cn2ncnc12 [Example 19]	2 nM	3 nM	1760 nM				
COc1cc(-c2[nH]c3cnc(C4CCN(CC(C)(C)O)CC4)cc3c2C(C)C)cn2ncnc12 [Example 296]	3.3 nM	5.4 nM	132 nM				
Cc1c(-c2[nH]c3cnc(N4CCC(NC5CCOCC5)CC4)c(C)c3c2C(C)C)cn2ncnc2c1C [Example 205]	1.2 nM	0.55 nM	600 nM				
Cc1c(-c2[nH]c3cnc(N4CCC(NCC(C)(C)C)CC4)c(F)c3c2C(C)C)cn2ncnc2c1C [Example 167]	2.6 nM	0.49 nM	4330 nM				
Cc1c(-c2[nH]c3cnc(C4CCN(C(=O)CN(C)C)CC4)c(F)c3c2C(C)C)cn2ncnc2c1C [Example 29]	4.3 nM	4.7 nM	1700 nM				
Cc1c(N2CCC(N3CCN(S(C)(=O)=O)CC3)CC2)ncc2[nH]c(-c3cc(C)c4ncnn4c3)c(C(C)C)c12 [Example 285]	1.3 nM	1.6 nM	1870 nM				
CNCC(=O)NC1CCN(c2cc3c(C(C)C)c(-c4cc(OC)c5ncnn5c4)[nH]c3cn2)CC1 [Example 339]	12 nM	28 nM	677 nM				
COc1cc(-c2[nH]c3cnc(C4CCC(NCC(C)(C)C)CC4)cc3c2C(C)C)cn2ncnc12 (centres unmarked) [Example 325]	2.4 nM	12 nM	512 nM				
Cc1c(-c2[nH]c3cnc(N4CCN(CC5CCOCC5)CC4)c(C)c3c2C(C)C)cn2ncnc2c1C [Example 419]	32 nM	1.4 nM	5900 nM				

Reference: patent US11912703B2, “6-azaindole compounds” (BRISTOL-MYERS SQUIBB COMPANY, priority 2017, dated 2024)
